Results taken from US20250388553A1 (Incyte Corporation, priority 2018, published 2025).
pIC50: −log10 of the molar value. Structures can show the parent of a compound that is named as a salt. Where two headings read alike, the source gives them in different places.

Key:
[1] = test system: Phosphorylated Ribosomal Protein S6 (RPS6) in THP-1 cells; assay: THP-1 RPS6 ELISA assay; type: cell-based, Human; conditions: Table A3, THP-1 cells, 10 nM MCP-1, phospho-RPS6 ELISA, read-out: PI3Kγ_THP1_RPS6_ELISA IC50
Description: Example A. THP-1 RPS6 ELISA Assay
To measure the Phosphorylated Ribosomal Protein S6 (RPS6) in cell lysates, THP-1 cells (Human Acute Monocytic Leukemia) are purchased from ATCC (Manassas, VA) and maintained in RPMI with 10% FBS (Gibco/Life Technologies, Carlsbad, CA). For the assay, THP-1 cells are serum starved overnight in RPMI, then plated in RPMI (2×10^5 cells/well in […]) into 96-well flat-bottom tissue culture treated plates (Corning, Corning, NY), in the presence or absence of a concentration range of test compounds. Covered plates are incubated for 2 hours at 37° C., 5% CO2 then treated with or without 10 nM MCP-1(MYBioSource, San Diego, CA) for 15 minutes at 37° C., 5% CO2. Plates are centrifuged at 1600 RPM and supernatants are removed. Cells are lysed in Lysis Buffer (Cell Signaling, Danvers, MA) with Protease Inhibitor (Calbiochem/EMD, Germany), PMSF (Sigma, St Louis MO), HALTS (Thermo Fisher, Rockford, IL) for 30 min on wet ice. Cell lysates are frozen at −80° C. before testing. The lysates are tested in the Human/Mouse/Rat Phospho-RPS6 ELISA (R&D Systems, Inc. Minn, MN). The plate is measured using a microplate reader (SpectraMax M5—Molecular Devices, LLC Sunnyvale, CA) set to 450 nm with a wavelength correction of 540. IC50 determination is performed by fitting the curve of inhibitor percent inhibition versus the log of the inhibitor concentration using the GraphPad Prism 5.0 software.
The compounds of the Examples were tested in the assays described in Examples A, B and C and found to have the IC50s are shown in Tables A1, A2, A3 and A4.

[2] = target: PI3Kδ (p1106/p85a) Recombinant Human Protein (Homo sapiens (Human), UniProt O00329); assay: PI3Kδ scintillation proximity assay; type: biochemical
[3] = target: PI3Kγ (p110γ) Recombinant Human Protein (Homo sapiens (Human), UniProt P48736); assay: PI3K-γ scintillation proximity assay; type: biochemical
[4] = Table A3, scintillation proximity assay, recombinant human PI3Kδ
[5] = Table A3, scintillation proximity assay, recombinant human p110γ

Sequence of PI3Kδ (p1106/p85a) Recombinant Human Protein (O00329 whole entry): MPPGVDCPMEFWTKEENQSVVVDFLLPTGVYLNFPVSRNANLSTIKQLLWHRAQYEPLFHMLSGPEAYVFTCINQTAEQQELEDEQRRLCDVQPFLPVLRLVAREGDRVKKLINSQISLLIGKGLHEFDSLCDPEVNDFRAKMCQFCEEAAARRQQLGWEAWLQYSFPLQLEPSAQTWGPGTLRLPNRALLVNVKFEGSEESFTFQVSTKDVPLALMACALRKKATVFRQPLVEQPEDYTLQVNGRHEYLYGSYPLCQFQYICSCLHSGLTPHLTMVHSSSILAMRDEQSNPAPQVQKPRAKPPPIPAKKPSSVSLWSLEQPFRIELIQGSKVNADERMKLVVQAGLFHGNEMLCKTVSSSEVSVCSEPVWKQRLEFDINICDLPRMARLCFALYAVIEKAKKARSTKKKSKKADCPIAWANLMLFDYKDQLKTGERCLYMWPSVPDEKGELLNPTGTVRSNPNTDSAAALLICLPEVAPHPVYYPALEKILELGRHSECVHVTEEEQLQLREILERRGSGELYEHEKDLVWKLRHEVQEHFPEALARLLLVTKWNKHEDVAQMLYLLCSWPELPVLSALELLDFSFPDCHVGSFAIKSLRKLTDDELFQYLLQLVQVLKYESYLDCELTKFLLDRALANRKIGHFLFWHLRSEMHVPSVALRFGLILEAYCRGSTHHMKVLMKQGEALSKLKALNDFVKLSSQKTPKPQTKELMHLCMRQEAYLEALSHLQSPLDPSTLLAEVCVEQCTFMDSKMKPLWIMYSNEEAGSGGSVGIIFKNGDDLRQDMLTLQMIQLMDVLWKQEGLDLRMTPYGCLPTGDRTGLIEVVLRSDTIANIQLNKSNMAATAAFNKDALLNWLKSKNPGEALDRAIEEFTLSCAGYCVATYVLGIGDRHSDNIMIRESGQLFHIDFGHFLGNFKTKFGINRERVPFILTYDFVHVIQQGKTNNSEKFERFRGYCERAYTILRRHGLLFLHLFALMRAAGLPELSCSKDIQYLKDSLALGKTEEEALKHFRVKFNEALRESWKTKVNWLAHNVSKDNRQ
Sequence of PI3Kδ (p1106/p85a) Recombinant Human Protein (P27986 whole entry partner): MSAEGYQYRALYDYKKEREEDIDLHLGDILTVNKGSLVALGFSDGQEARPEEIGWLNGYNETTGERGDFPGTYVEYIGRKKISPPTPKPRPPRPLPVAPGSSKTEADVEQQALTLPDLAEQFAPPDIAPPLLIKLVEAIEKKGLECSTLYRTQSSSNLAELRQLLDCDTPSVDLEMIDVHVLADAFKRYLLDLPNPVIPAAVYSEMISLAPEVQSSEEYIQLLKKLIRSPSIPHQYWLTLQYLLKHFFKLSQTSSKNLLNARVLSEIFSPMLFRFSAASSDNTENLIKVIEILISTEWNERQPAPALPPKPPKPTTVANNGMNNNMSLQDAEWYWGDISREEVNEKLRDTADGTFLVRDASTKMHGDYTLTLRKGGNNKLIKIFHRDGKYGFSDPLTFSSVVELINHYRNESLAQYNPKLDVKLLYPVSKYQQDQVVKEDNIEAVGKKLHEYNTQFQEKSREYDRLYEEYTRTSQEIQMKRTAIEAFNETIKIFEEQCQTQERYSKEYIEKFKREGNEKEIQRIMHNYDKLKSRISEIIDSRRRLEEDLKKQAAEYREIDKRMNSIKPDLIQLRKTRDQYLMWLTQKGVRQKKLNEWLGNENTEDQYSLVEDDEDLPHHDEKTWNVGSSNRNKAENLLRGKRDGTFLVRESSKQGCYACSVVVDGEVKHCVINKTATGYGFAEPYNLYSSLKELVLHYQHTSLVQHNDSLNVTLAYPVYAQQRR
Sequence of PI3Kγ (p110γ) Recombinant Human Protein (P48736 whole entry): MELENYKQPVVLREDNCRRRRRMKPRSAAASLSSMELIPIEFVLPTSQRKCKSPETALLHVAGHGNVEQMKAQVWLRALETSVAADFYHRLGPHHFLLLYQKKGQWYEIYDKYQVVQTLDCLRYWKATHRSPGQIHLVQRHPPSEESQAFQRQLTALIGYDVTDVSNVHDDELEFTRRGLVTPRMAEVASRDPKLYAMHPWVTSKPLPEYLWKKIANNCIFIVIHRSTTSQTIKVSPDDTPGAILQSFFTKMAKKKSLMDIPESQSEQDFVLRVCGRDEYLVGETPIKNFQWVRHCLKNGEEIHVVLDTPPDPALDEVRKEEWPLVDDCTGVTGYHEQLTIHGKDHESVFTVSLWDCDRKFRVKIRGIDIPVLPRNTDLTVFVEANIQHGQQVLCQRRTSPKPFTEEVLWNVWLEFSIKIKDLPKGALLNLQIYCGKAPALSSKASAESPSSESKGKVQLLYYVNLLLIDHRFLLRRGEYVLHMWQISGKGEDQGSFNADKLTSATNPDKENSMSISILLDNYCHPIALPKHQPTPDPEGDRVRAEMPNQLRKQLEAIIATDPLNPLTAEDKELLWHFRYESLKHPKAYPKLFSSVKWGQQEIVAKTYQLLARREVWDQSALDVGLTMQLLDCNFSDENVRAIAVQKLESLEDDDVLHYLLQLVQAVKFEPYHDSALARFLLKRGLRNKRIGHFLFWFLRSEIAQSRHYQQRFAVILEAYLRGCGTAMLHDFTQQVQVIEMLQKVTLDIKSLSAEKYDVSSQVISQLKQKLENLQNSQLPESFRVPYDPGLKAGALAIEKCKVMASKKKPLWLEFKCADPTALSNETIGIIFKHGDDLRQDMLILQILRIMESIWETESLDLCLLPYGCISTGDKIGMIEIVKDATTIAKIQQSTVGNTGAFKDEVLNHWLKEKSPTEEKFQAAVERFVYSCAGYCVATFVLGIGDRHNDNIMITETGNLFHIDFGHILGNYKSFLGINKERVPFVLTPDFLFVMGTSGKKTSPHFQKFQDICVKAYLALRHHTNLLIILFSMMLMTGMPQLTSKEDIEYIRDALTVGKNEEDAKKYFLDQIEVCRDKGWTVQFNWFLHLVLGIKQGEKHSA

Molecule `Cc1ccc(C(O)(C(N)=O)C(F)(F)F)cc1-c1cnc(N)c(-c2cnnn2C)n1` (stereo not drawn) [Example 74, 2-(3-(5-amino-6-(1-methyl-1H-1,2,3-triazol-5-yl)pyrazin-2-yl)-4-methylphenyl)-3,3,3-trifluoro-2-hydroxypropanamide trifluoroacetate] has a pIC50 ([1]; Homo sapiens) greater than 7.00, a pIC50 [2, 4] greater than 7.00 and a pIC50 [3, 5] greater than 7.00.
`Cc1ccc(C(O)(C(N)=O)C(F)(F)F)cc1-c1cnc(N)c(-c2cnn(CC(F)(F)F)c2)n1` (stereo not drawn) [Example 75, 2-(3-(5-amino-6-(1-(2,2,2-trifluoroethyl)-1H-pyrazol-4-yl)pyrazin-2-yl)-4-methylphenyl)-3,3,3-trifluoro-2-hydroxypropanamide trifluoroacetate] showed a pIC50 ([1]; Homo sapiens) greater than 7.00, a pIC50 [2, 4] greater than 7.00 and a pIC50 [3, 5] greater than 7.00.
Molecule `Cc1ccc(C(O)(C(N)=O)C(F)(F)F)cc1-c1cnc(N)c(-c2cnn(C(C)(C)C#N)c2)n1` (stereo not drawn) [Example 76, 2-(3-(5-amino-6-(1-(2-cyanopropan-2-yl)-1H-pyrazol-4-yl)pyrazin-2-yl)-4-methylphenyl)-3,3,3-trifluoro-2-hydroxypropanamide trifluoroacetate] has a pIC50 ([1]; Homo sapiens) greater than 7.00, a pIC50 [2, 4] greater than 7.00 and a pIC50 [3, 5] greater than 7.00.
`Cc1ccc(C(O)(C(N)=O)C(F)(F)F)cc1-c1cnc(N)c(-c2cnn(C3CCOCC3)c2)n1` (stereo not drawn) [Example 77, 2-(3-(5-amino-6-(1-(tetrahydro-2H-pyran-4-yl)-1H-pyrazol-4-yl)pyrazin-2-yl)-4-methylphenyl)-3,3,3-trifluoro-2-hydroxypropanamide trifluoroacetate] showed a pIC50 ([1]; Homo sapiens) greater than 7.00, a pIC50 [2, 4] greater than 7.00 and a pIC50 [3, 5] greater than 7.00.
With `Cc1ccc(C(O)(C(N)=O)C(F)(F)F)cc1-c1cnc(N)c(-c2cnn(CC3(C#N)CC3)c2)n1` (stereo not drawn) [Example 78, 2-(3-(5-amino-6-(1-((1-cyanocyclopropyl)methyl)-1H-pyrazol-4-yl)pyrazin-2-yl)-4-methylphenyl)-3,3,3-trifluoro-2-hydroxypropanamide trifluoroacetate] the pIC50 ([1]; Homo sapiens) was greater than 7.00, the pIC50 [2] was greater than 7.00 and the pIC50 [3] was greater than 7.00.
For `COCCn1cc(-c2nc(-c3cc(C(O)(C(N)=O)C(F)(F)F)ccc3C)cnc2N)cn1` (stereo not drawn) [Example 79, 2-(3-(5-amino-6-(1-(2-methoxyethyl)-1H-pyrazol-4-yl)pyrazin-2-yl)-4-methylphenyl)-3,3,3-trifluoro-2-hydroxypropanamide trifluoroacetate], the pIC50 ([1]; Homo sapiens) was greater than 7.00, the pIC50 [2, 4] was greater than 7.00 and the pIC50 [3, 5] was greater than 7.00.
In the case of `CNC(=O)c1ccc(-c2nc(-c3cc(C(O)(C(N)=O)C(F)(F)F)ccc3C)cnc2N)cn1` (stereo not drawn) [Example 80, 5-(3-amino-6-(5-(3-amino-1,1,1-trifluoro-2-hydroxy-3-oxopropan-2-yl)-2-methylphenyl)pyrazin-2-yl)-N-methylpicolinamide bistrifluoroacetate], the pIC50 ([1]; Homo sapiens) was 6.00 to 6.30, the pIC50 [2, 4] was 6.30 to 7.00 and the pIC50 [3, 5] was greater than 7.00.
For `Cc1ccc(C(O)(C(N)=O)C(F)(F)F)cc1-c1cnc(N)c(-c2cncnc2)n1` (stereo not drawn) [Example 81, 2-(3-(5-amino-6-(pyrimidin-5-yl)pyrazin-2-yl)-4-methylphenyl)-3,3,3-trifluoro-2-hydroxypropanamide trifluoroacetate], the pIC50 ([1]; Homo sapiens) was 6.30 to 7.00, the pIC50 [2, 4] was 6.30 to 7.00 and the pIC50 [3, 5] was greater than 7.00.
For `Cc1ccc(-c2nc(-c3cc(C(O)(C(N)=O)C(F)(F)F)ccc3C)cnc2N)cn1` (stereo not drawn) [Example 82, 2-(3-(5-amino-6-(6-methylpyridin-3-yl)pyrazin-2-yl)-4-methylphenyl)-3,3,3-trifluoro-2-hydroxypropanamide bistrifluoroacetate], the pIC50 ([1]; Homo sapiens) was 6.30 to 7.00, the pIC50 [2, 4] was greater than 7.00 and the pIC50 [3, 5] was greater than 7.00.
In the case of `Cc1ccc(C(O)(C(N)=O)C(F)(F)F)cc1-c1cnc(N)c(-c2ccc(C(F)(F)F)nc2)n1` (stereo not drawn) [Example 83, 2-(3-(5-amino-6-(6-(trifluoromethyl)pyridin-3-yl)pyrazin-2-yl)-4-methylphenyl)-3,3,3-trifluoro-2-hydroxypropanamide bistrifluoroacetate], the pIC50 ([1]; Homo sapiens) was 6.30 to 7.00, the pIC50 [2, 4] was greater than 7.00 and the pIC50 [3, 5] was greater than 7.00.
`Cc1ccc(C(O)(C(N)=O)C(F)(F)F)cc1-c1cnc(N)c(-c2cnc(C3CC3)s2)n1` (stereo not drawn) [Example 84, 2-(3-(5-amino-6-(2-cyclopropylthiazol-5-yl)pyrazin-2-yl)-4-methylphenyl)-3,3,3-trifluoro-2-hydroxypropanamide trifluoroacetate] was tested, and the pIC50 ([1]; Homo sapiens) was 6.30 to 7.00, the pIC50 [2, 4] was greater than 7.00 and the pIC50 [3, 5] was greater than 7.00.
With `Cc1ccc(C(O)(C(N)=O)C(F)(F)F)cc1-c1cnc(N)c(-c2ccnc(CO)c2)n1` (stereo not drawn) [Example 85, 2-(3-(5-amino-6-(2-(hydroxymethyl)pyridin-4-yl)pyrazin-2-yl)-4-methylphenyl)-3,3,3-trifluoro-2-hydroxypropanamide bistrifluoroacetate] the pIC50 ([1]; Homo sapiens) was 6.30 to 7.00, the pIC50 [2, 4] was greater than 7.00 and the pIC50 [3, 5] was greater than 7.00.
With `Cc1ccc(C(O)(C(N)=O)C(F)(F)F)cc1-c1cnc(N)c(-c2cnn(CC3CC3)c2)n1` (stereo not drawn) [Example 86, 2-(3-(5-amino-6-(1-(cyclopropylmethyl)-1H-pyrazol-4-yl)pyrazin-2-yl)-4-methylphenyl)-3,3,3-trifluoro-2-hydroxypropanamide trifluoroacetate] the pIC50 ([1]; Homo sapiens) was greater than 7.00, the pIC50 [2, 4] was greater than 7.00 and the pIC50 [3, 5] was greater than 7.00.
Work on `Cc1ccc(C(O)(C(N)=O)C(F)(F)F)cc1-c1cnc(N)c(-c2ccc(CC#N)cc2)n1` (stereo not drawn) [Example 87, 2-(3-(5-amino-6-(4-(cyanomethyl)phenyl)pyrazin-2-yl)-4-methylphenyl)-3,3,3-trifluoro-2-hydroxypropanamide trifluoroacetate] yielded a pIC50 ([1]; Homo sapiens) of 6.30 to 7.00, a pIC50 [2, 4] greater than 7.00 and a pIC50 [3, 5] greater than 7.00.
Work on `Cc1ccc(C(O)(C(N)=O)C(F)(F)F)cc1-c1cnc(N)c(-c2ccc(CO)cc2)n1` (stereo not drawn) [Example 88, 2-(3-(5-amino-6-(4-(hydroxymethyl)phenyl)pyrazin-2-yl)-4-methylphenyl)-3,3,3-trifluoro-2-hydroxypropanamide trifluoroacetate] yielded a pIC50 ([1]; Homo sapiens) of 6.30 to 7.00, a pIC50 [2, 4] greater than 7.00 and a pIC50 [3, 5] greater than 7.00.
With `CNC(=O)c1ccc(-c2nc(-c3cc(C(O)(C(N)=O)C(F)(F)F)ccc3C)cnc2N)cc1` (stereo not drawn) [Example 89, 4-(3-amino-6-(5-(3-amino-1,1,1-trifluoro-2-hydroxy-3-oxopropan-2-yl)-2-methylphenyl)pyrazin-2-yl)-N-methylbenzamide trifluoroacetate] the pIC50 ([1]; Homo sapiens) was 6.30 to 7.00, the pIC50 [2, 4] was greater than 7.00 and the pIC50 [3, 5] was greater than 7.00.
`Cc1ccc(C(O)(C(N)=O)C(F)(F)F)cc1-c1cnc(N)c(-c2cccc(C(C)C)c2)n1` (stereo not drawn) [Example 90, 2-(3-(5-amino-6-(3-isopropylplienyl)pyrazin-2-yl)-4-methylphenyl)-3?3,3-trifluoro-2-hydroxypropanamide trifluoroacetate] gave a pIC50 [1] of 6.30 to 7.00, a pIC50 [2, 4] of 6.30 to 7.00 and a pIC50 [3, 5] greater than 7.00.
Work on `Cc1ccc(C(O)(C(N)=O)C(F)(F)F)cc1-c1cnc(N)c(-c2ccc(C(C)(C)O)cc2)n1` (stereo not drawn) [Example 91, 2-(3-(5-amino-6-(4-(2-hydroxypropan-2-yl)phenyl)pyrazin-2-yl)-4-methylphenyl)-3,3,3-trifluoro-2-hydroxypropanamide trifluoroacetate] yielded a pIC50 ([1]; Homo sapiens) greater than 7.00, a pIC50 [2, 4] greater than 7.00 and a pIC50 [3, 5] greater than 7.00.
Work on `Cc1ccc(C(O)(C(N)=O)C(F)(F)F)cc1-c1cnc(N)c(-c2ccc(C3CC3)cc2)n1` (stereo not drawn) [Example 92, 2-(3-(5-amino-6-(4-cyclopropylphenyl)pyrazin-2-yl)-4-methylphenyl)-3,3,3-trifluoro-2-hydroxypropanamide trifluoroacetate] yielded a pIC50 ([1]; Homo sapiens) of 6.30 to 7.00, a pIC50 [2, 4] of 6.30 to 7.00 and a pIC50 [3, 5] greater than 7.00.
